The melting point is the temperature of the solid-liquid transition.

Among the data in a melting point compilation (Tetko et al.; mined from patent text by program, amines drawn as free bases though some values may be those of a salt) are melting point values, retold here.

Turning to `CCCCCCC1CCC(C(=O)Nc2c(C(C)C)cccc2C(C)C)C(=O)O1` (centres undefined), the melting point lay within 113 to 115 °C.

For the molecule `COC(=O)/C=C1\CCCCC1n1nc(-c2c(-c3ccccc3)nn3ccccc23)ccc1=O` (centres undefined), the melting point was 156 to 157 °C.

As to `NC(=O)OCC(O)Cn1oc2ccc(Cl)cc2c1=O` (centres undefined), the melting point is 161 to 162 °C.

Molecule `CC(=O)Nc1nc(CCc2ccc(CN3CCC(NC(=O)OC(C)(C)C)C3)cc2)cs1` (centres undefined) returned a melting point of 131 to 132 °C.

The molecule `CCOC(=O)c1cnc2c(NC(=O)c3c(Cl)cccc3Cl)cccc2c1CBr` returned a melting point of 199 °C.

In turn, `CS(=O)(=O)c1ccc(C2=C(c3ccccc3)C(=O)C3(CCCC3)O2)cc1` registered a melting point of 184 to 185 °C.

`CC(C)C[C@H](NC(=O)[C@H](Cc1c[nH]cn1)NC(=O)[C@H](Cc1cccc2ccccc12)NC(=O)OCc1ccccc1)[C@@H](O)CC=O`: the melting point lay in the range of 166 to 168 °C.

Turning to `NS(=O)(=O)OCCOc1cccc(-n2ccnc2)c1`, the melting point fell in the range of 149 to 150 °C.

As for `Cc1nc(N)n(N)c(=O)c1CCO`, the melting point lay in the range of 126 to 135 °C.

The molecule `Cn1c(C(F)F)nn(-c2cc(O)c(Cl)cc2F)c1=O` gave a melting point of 153 to 155 °C.

For `Cn1c(CCNS(C)(=O)=O)nnc1NCCCOc1cccc(CN2CCCCC2)c1`, the melting point was 105 to 106 °C.

On to `CN1CCN(C(=O)c2ccccc2)C1=C(Sc1ccccc1)[N+](=O)[O-]`, for which the melting point was 175 to 178 °C.

With `Nc1ccc2sc(C=Cc3ccccc3)nc2c1`, the melting point fell in the range of 154 to 156 °C.

Consider `COC(=O)Cc1c(C(=O)OC)ccn1CCOS(C)(=O)=O`, for which the melting point is 99 to 101 °C.

For the molecule `CC(=O)NCC1CN(c2ccc(N3CCC(O)C(C)(C)C3)c(F)c2)C(=O)O1` (centres undefined), the melting point was 70 to 72 °C.

Consider `COc1cc(OC)cc(N2CCN(C(=O)Nc3cc(C(C)O)c(C)nc3OC)CC2)c1` (centres undefined), for which the melting point is 124 to 126 °C.

`CC(=O)Nc1cccc2c1C(=O)c1c-2n[nH]c1-c1ccc(N(C)C)cc1` returned a melting point of more than 300 °C.

As for `CC(=O)CCNc1ccc(-c2cc(-c3ccc(C(=O)O)cc3)ccc2OCCCCO)cc1C(C)(C)C`, the melting point worked out at 75 °C.

With `CCNC(=O)n1nc(Oc2c(Cl)cc(C(F)(F)F)cc2Cl)cc1C(C)C`, the melting point lay in the range of 74 to 76 °C.

`O=C(O)CNC(=O)c1ccc(C(=O)NS(=O)(=O)c2ccccc2)cn1` displayed a melting point of 190 to 191 °C.

`CCCCCCCCCCCCCCCCCCOc1cccc(N(CC(=O)OCc2ccccc2)CC(=O)OCc2ccccc2)c1` registered a melting point of 55 to 57 °C.

`COC1C(OC(=O)c2ccccc2)C(COC(=O)c2ccccc2)OC1n1cc([N+](=O)[O-])c(=O)[nH]c1=O` (centres undefined) gave a melting point of 187 to 189 °C.

Regarding `CC(C)[C@H](NC(=O)OCc1ccccc1)C(=O)NC(Cc1ccccc1)C(O)C(N)Cc1ccccc1` (some centres undefined), the melting point was 158 to 160 °C.

Turning to `COc1cc(OC)c2c(c1)c(C(=O)C(=O)NC1=CC(=O)OC1)cn2Cc1ccc(Cl)cc1`, the melting point was in the range of 280 to 282 °C.

As to `COCc1cc(-c2nnc3c4ccccc4c(OCc4ncn(C)n4)nn23)no1`, the melting point is 236 °C.

For `CC(C)N(CCCC1CCN(CCNC(=O)N2c3cc(Cl)ccc3C(=O)Nc3cccnc32)CC1)C(C)C`, the melting point was 175 to 176 °C.

On to `O=C(O)CCOc1cccc(F)c1`, for which the melting point is 90 to 91 °C.

In the case of `COc1ccc(S(=O)(=O)N(CC(N)=O)c2ccc(Cl)cc2C(C)c2ccccc2Cl)cc1OC` (centres undefined), the melting point stood at 150 °C.

In turn, `COCc1c(-c2ccno2)ncc2[nH]c3ccc(OCc4ccccc4)cc3c12` came in with a melting point of 125 to 126 °C.

The molecule `CCOP(=O)(/C=C/c1cn(-c2ccccc2)nc1OCc1ccc(OCc2nc(-c3cccc(CC(=O)O)c3)oc2C)c(OC)c1)OCC` came in with a melting point of 174 to 175 °C.

Turning to `CCOC(=O)c1c(CCl)nc2sc3c(c2c1-c1ccc(OC)c(OC)c1)CCN(C(=O)c1ccc(Cl)cc1)C3`, the melting point lay in the range of 132 to 133 °C.

Regarding `c1csc(-c2ccc(-c3cc4ncnc(Nc5ccc6[nH]ccc6c5)c4s3)cc2)c1`, the melting point was in the range of 165 to 178 °C.

The molecule `Cc1cc(C)cc(-c2nc(CCl)co2)c1` displayed a melting point of 76 to 77 °C.

`CC(=O)n1nc(-c2cc(C(C)(C)C)c(O)c(C(C)(C)C)c2)c2cccnc21` registered a melting point of 169 to 171 °C.

`CCOC(=O)C=C1CCc2c(c(OC)c(OC)c(OC)c2OC)CC1` came in with a melting point of 61 to 63 °C.

`CCCCn1cnnc1SCC(=O)c1ccc(OC)cc1` came in with a melting point of 79 to 82 °C.

`CN=C(ON1C(=O)c2ccccc2C1=O)c1ccccc1` showed a melting point of 174 to 176 °C.

`O=Cc1cc(-c2ccccc2)c2ccc3c(-c4ccccc4)cc(C=O)nc3c2n1` yielded a melting point of 165 to 170 °C.

On to `O=c1[nH]c2cc(Cl)cc(Cl)c2c(O)c1Sc1ccc(OCc2ccccc2)cc1`, for which the melting point fell in the range of 224 to 227 °C.

For the molecule `CC(C)(C)OC(=O)N1CCC(Cc2ccc(Cl)cc2)(C(=O)O)CC1`, the melting point was in the range of 179 to 180 °C.

In turn, `CCN(CC)C(=O)c1cc2ccsc2c(-c2ccccc2Cl)n1` had a melting point of 86 °C.

`O=C(O)C1=CSC2CC(=O)N12` (centres undefined) yielded a melting point of 235 °C.

Regarding `O=S1Cc2ccccc2-c2ccccc21` (centres undefined), the melting point is 97 to 100 °C.

`COc1cc2ncnc(Sc3cccc(O)c3)c2cc1OC` returned a melting point of 221 to 230 °C.

Molecule `O=NSC1(C2OCCCO2)CCCCC1` registered a melting point of 34 to 36 °C.

`N#CCCNC1(CC2CCCCC2)C(=O)Nc2ccc(Cl)cc21` (centres undefined) showed a melting point of 208 °C.

For `CCCSc1nc(N)nc2c1ncn2C1C=CC(CO)C1` (centres undefined), the melting point fell in the range of 128 to 130 °C.

On to `CCC1(c2ccc(Cl)cc2)OCc2c1cnc(CN(C)C)c2O` (centres undefined), for which the melting point is 151 °C.

`CCOC(=O)c1[nH]c2cc(C(F)(F)F)ccc2c1N` returned a melting point of 204 to 210 °C.

Molecule `CC(Oc1cccc(Oc2c(Cl)cc(C(F)(F)F)cc2Cl)c1)(C(=O)O)[N+](=O)[O-]` (centres undefined) returned a melting point of 146 °C.

In the case of `CCOC(=O)c1ccc2nc3sc(C(C)C)cc3c(=O)n2c1`, the melting point is 122 to 123 °C.

Turning to `COc1cc(C=C[N+](=O)[O-])ccc1OCc1cccc2ccccc12`, the melting point lay in the range of 120 to 123 °C.

Regarding `Cc1nnc(NCCC2CCCN2C)c2cc3ccccn3c12` (centres undefined), the melting point amounted to 169 °C.

As for `COc1cc(C)c(NCCO)cc1[N+](=O)[O-]`, the melting point is 94 °C.

With `COc1cc(S(C)=O)ccc1-c1nc2ncc(O)cc2[nH]1` (centres undefined), the melting point lay in the range of 220 to 223 °C.

In turn, `O=S(=O)(Nc1cccc(I)c1)C(F)(F)F` came in with a melting point of 75 to 77 °C.

Molecule `CCNc1ccc(N2CCOC2=O)cc1[N+](=O)[O-]` displayed a melting point of 140 °C.

On to `O=C(O)COc1ccc(SCc2cccc(OCc3ccc(C(F)(F)F)cc3)c2)c2c1CCC2`, for which the melting point is 145 to 146 °C.

Consider `CSC1=C(c2cc3ccccc3s2)N2CCN=C2S1`, for which the melting point fell in the range of 95 to 97 °C.

`O=C(NCCCC(F)(F)F)Oc1ccc([N+](=O)[O-])cc1` displayed a melting point of 118 to 120 °C.

Take `CCOC(=O)c1c(CC(C)C)nc2c(C(F)(F)F)cccc2c1O`: the melting point amounted to 100 °C.

`CC(=O)Nc1cccc(C=O)c1` gave a melting point of 68 to 70 °C.

Turning to `O=C(Nc1ccc(F)cc1)c1nnc2ccccc2c1O`, the melting point is 280 to 284 °C.

Molecule `C=C(OCC)c1cc(C(=O)OC)c(NC(C)=O)cc1C(F)(F)F` had a melting point of 65 to 73 °C.

As to `CCCCC(CC)C(c1ccc(O)cc1)c1ccc(O)cc1` (centres undefined), the melting point was 87 °C.

In turn, `CC(C)(C)NS(=O)(=O)c1ccc(Cl)c(CBr)c1Cl` had a melting point of 157 °C.

Take `O=c1[nH]c2ccc(S(=O)(=O)Nc3ccc(Cl)cc3Cl)cc2c(=O)o1`: the melting point was found to be 215 °C.

As to `Cc1c(NC(=O)CC(C)(C)C)cc2c(c1C)OC(C)(C)C2c1cccc(C(C)C)c1` (centres undefined), the melting point lay in the range of 162 to 163 °C.

Take `CC(C)(C)OC(=O)N[C@@H]1CN[C@H]2CCCO[C@H]21` (relative stereo): the melting point is 110 to 111 °C.

Turning to `CC1(C)CCC(C)(C)c2cc(C(C)(O)COc3ccc(C(=O)O)c(O)c3)ccc21` (centres undefined), the melting point lay in the range of 170 to 171 °C.

On to `CCN(CC)CCNC(=O)c1nc(Cl)c(NCCN(CC)CC)nc1OC`, for which the melting point is 112 °C.

Turning to `CCOC(=O)C(C)(Cc1ccc(O)c(OC)c1)NN` (centres undefined), the melting point was in the range of 114 to 116 °C.

On to `CC(Oc1ccc(Oc2ncc(C(F)(F)F)cc2F)cc1)C(=O)Nc1ccc(C(F)(F)F)cc1` (centres undefined), for which the melting point fell in the range of 127 to 128 °C.

The molecule `Cc1cc2c3c(cc(C)c2[nH]c1=O)CC(CBr)O3` (centres undefined) returned a melting point of 277 to 278 °C.

Molecule `Nc1sc2c(c1C(=O)c1ccc3ccccc3c1)CCN(Cc1ccccc1)C2` registered a melting point of 174 to 177 °C.

For `Cc1cc(C(C)(C)CO)c(Cl)nn1`, the melting point lay in the range of 151 to 153 °C.

Turning to `CC1(C)CCC(C)(C)c2cc3[nH]c(SCc4ccccn4)nc3cc21`, the melting point was 199 to 200 °C.

`O=C(O)CC(=Cc1ccccc1)C(=O)O` showed a melting point of 114 °C.

Turning to `N#CC(=NO)c1cccs1`, the melting point fell in the range of 103 to 104 °C.

In the case of `COc1ccc(S(=O)(=O)C(Cl)(Cl)S(=O)(=O)N(C)C)cc1`, the melting point lay in the range of 145 to 147 °C.

`CNC(=S)C1=C(O)C(COC)(COC)Oc2ccc([N+](=O)[O-])cc21` showed a melting point of 97 to 101 °C.

In turn, `N#Cc1cccnc1CC1C(=O)C2(COc3cc4c(cc32)OCCO4)c2ccccc21` (centres undefined) returned a melting point of 230 to 233 °C.

Turning to `OC(c1ccc(Br)cc1)(c1ccc(Br)cc1)c1ncc[nH]1`, the melting point was 192 to 194 °C.

On to `Cc1c(C)c2c(c(C)c1NC(=O)OC(C)(C)C)C(c1ccc(C(C)C)cc1)CO2` (centres undefined), for which the melting point lay in the range of 121 to 122 °C.

For `O=c1[nH]c2ccccc2n1CCN1CCN(c2cc(C(F)(F)F)ccc2O)CC1`, the melting point is 158 to 160 °C.

In turn, `Cc1oc(-c2ccccc2)nc1CCc1nc(CCl)co1` showed a melting point of 71 to 72 °C.

Regarding `CCC(=O)NCc1cccc(-c2nc(=O)c3ccccc3s2)n1`, the melting point fell in the range of 199 to 200 °C.

On to `NC(CCCCCCCCC(N)=NO)=NO`, for which the melting point stood at 182 °C.

As to `CC(C)(C)c1cc(SCCO)cc(C(C)(C)C)c1O`, the melting point was determined as 66 °C.
